Test results reported in patent publication US9951065B2 (Gilead Sciences, Inc., priority 2015, dated 2018).

Molecular target: T1, IDO1 (Homo sapiens, UniProt P14902)
T1 construct: HeLa cells were treated with a test compound in the presence of IFNγ, which induces IDO1 expression; host or cells: H1-HeLa cells, IDO1 induced with IFNγ
Assay: Cell-based (HeLa) assay for measurement of IDO1 inhibition (kynurenine levels in supernatant after IFNγ induction)
Details: HeLa cells, IFNγ-induced IDO1, kynurenine in supernatant after 48 hour incubation; geometric mean of a minimum of four determinations
Procedure, shortened: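 HeLa cells, 1,250 per well, treated with compound (0.5% DMSO final) plus IFNγ to induce IDO1, for 48 h. Supernatant kynurenine measured by TCA hydrolysis at 60 °C, then p-dimethylaminobenzaldehyde, absorbance 480 nm. EC50 from a four-parameter fit normalized to −/+IFNγ controls; geometric mean of at least four runs.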

T1 sequence (P14902 whole entry): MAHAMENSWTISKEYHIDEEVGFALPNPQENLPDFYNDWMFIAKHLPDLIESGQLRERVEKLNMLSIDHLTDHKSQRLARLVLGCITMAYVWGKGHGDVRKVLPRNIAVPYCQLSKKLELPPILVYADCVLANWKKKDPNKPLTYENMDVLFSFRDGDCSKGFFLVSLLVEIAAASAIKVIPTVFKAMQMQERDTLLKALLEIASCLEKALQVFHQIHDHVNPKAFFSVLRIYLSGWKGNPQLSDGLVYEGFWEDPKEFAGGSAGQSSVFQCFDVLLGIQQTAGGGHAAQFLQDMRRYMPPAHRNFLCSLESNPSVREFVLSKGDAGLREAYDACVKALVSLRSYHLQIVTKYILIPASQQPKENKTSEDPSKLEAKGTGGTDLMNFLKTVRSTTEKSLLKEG

Row | Compound | EC50 [nM]
1 | O/N=C(\Nc1ccc(F)c(Cl)c1)c1ccnc2nc(CN3CCCCC3)[nH]c12 [Example 140, N-(3-Chloro-4-fluorophenyl)-N′-hydroxy-2-(piperidin-1-ylmethyl)-1H-imidazo[4,5-b]pyridine-7-carboximidamide] | 1610
2 | O/N=C(\Nc1ccc(F)c(Cl)c1)c1ccnc2nc(NC3CC3)[nH]c12 [Example 154, N-(3-Chloro-4-fluorophenyl)-2-(cyclopropylamino)-N′-hydroxy-1H-imidazo[4,5-b]pyridine-7-carboximidamide] | 529
3 | O/N=C(\Nc1ccc(F)c(Cl)c1)c1ccc(Br)c2nc[nH]c12 [Example 12, 4-Bromo-N-(3-chloro-4-fluorophenyl)-N′-hydroxy-1H-benzo[d]imidazole-7-carboximidamide] | 660
4 | CN(C)Cc1nc2nccc(/C(=N/O)Nc3ccc(F)c(Cl)c3)c2[nH]1 [Example 113, N-(3-Chloro-4-fluorophenyl)-2-((dimethylamino)methyl)-N′-hydroxy-1H-imidazo[4,5-b]pyridine-7-carboximidamide] | 1840
5 | O/N=C(\Nc1ccc(F)c(Cl)c1)c1ccnc2nc(CNCc3ccccn3)[nH]c12 [Example 121, N-(3-Chloro-4-fluorophenyl)-N′-hydroxy-2-(((pyridin-2-ylmethyl)amino)methyl)-1H-imidazo[4,5-b]pyridine-7-carboximidamide] | 1370

The remaining lines, values ahead:

Row | EC50 [nM] | Compound
6 | 570 | Nc1nc2c(F)c(F)cc(/C(=N/O)Nc3cccc(Br)c3)c2[nH]1 [Example 15, 2-Amino-N-(3-bromophenyl)-4,5-difluoro-N′-hydroxy-1H-benzo[d]imidazole-7-carboximidamide]
7 | 1260 | O/N=C(\Nc1ccc(F)c(Cl)c1)c1ccnc2nc(CCNC3CC3)[nH]c12 [Example 207, N-(3-chloro-4-fluorophenyl)-2-(2-(cyclopropylamino)ethyl)-N′-hydroxy-3H-imidazo[4,5-b]pyridine-7-carboximidamide]
8 | 1070 | CN1CCCC(Nc2nc3nccc(/C(=N/O)Nc4ccc(F)c(Cl)c4)c3[nH]2)C1 (centres unmarked) [Example 278, N-(3-chloro-4-fluorophenyl)-N′-hydroxy-2-((1-methylpiperidin-3-yl)amino)-1H-imidazo[4,5-b]pyridine-7-carboximidamide]
9 | 846 | O/N=C(\Nc1ccc(Cl)cc1)c1ccnc2nc[nH]c12 [Example 87, N-(4-Chlorophenyl)-N′-hydroxy-1H-imidazo[4,5-b]pyridine-7-carboximidamide]

Same assay, conditions: HeLa cells, IFNγ-induced IDO1, kynurenine in supernatant, 48 hour incubation; geometric mean of a minimum of four determinations

Row | Compound | EC50 [nM]
10 | CN(C)CC(O)CNc1nc2c(F)c(F)cc(/C(=N/O)Nc3ccc(F)c(Cl)c3)c2[nH]1 (centres unmarked) [Example 448, N-(3-chloro-4-fluorophenyl)-2-((3-(dimethylamino)-2-hydroxypropyl)amino)-4,5-difluoro-N′-hydroxy-1H-benzo[d]imidazole-7-carboximidamide] | 1120
11 | CC1CN(CCNc2nc3nccc(/C(=N/O)Nc4ccc(F)c(Cl)c4)c3[nH]2)C(C)CO1 (centres unmarked) [Example 485, N-(3-chloro-4-fluorophenyl)-2-((2-(2,5-dimethylmorpholino)ethyl)amino)-N′-hydroxy-1H-imidazo[4,5-b]pyridine-7-carboximidamide] | 639
12 | CN(C)CCNc1nc2c(F)ccc(/C(=N/O)Nc3cccc(Br)c3)c2[nH]1 [Example 383, N-(3-bromophenyl)-2-((2-(dimethylamino)ethyl)amino)-4-fluoro-N′-hydroxy-1H-benzo[d]imidazole-7-carboximidamide] | 319

Results, then the compound that gave them:

Row | EC50 [nM] | Compound
13 | 186 | OCC1CCCN1CCNc1nc2c(F)c(F)cc(/C(=N/O)Nc3ccc(F)c(Cl)c3)c2[nH]1 (centres unmarked) [Example 490, N-(3-chloro-4-fluorophenyl)-4,5-difluoro-N′-hydroxy-2-((2-(2-(hydroxymethyl)pyrrolidin-1-yl)ethyl)amino)-1H-benzo[d]imidazole-7-carboximidamide]
14 | 2810 | CN(CCc1nc2nccc(/C(=N/O)Nc3ccc(F)c(Cl)c3)c2[nH]1)CC1COCCO1 (centres unmarked) [Example 400, 2-(2-(((1,4-dioxan-2-yl)methyl)(methyl)amino)ethyl)-N-(3-chloro-4-fluorophenyl)-N′-hydroxy-1H-imidazo[4,5-b]pyridine-7-carboximidamide]
